Molecules are shown by their SMILES.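 Grown in 96-well plates, cells were treated for 48 hours with each compound at five concentrations. Insufficient inhibition: endpoint recorded as highest concentration tested. At the TGI there is no net growth.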

Holding throughout (test): NCI anticancer screen, dose series, 48 h
Experiment [1] concerns DMS 273 small cell lung.
Experiment [2] deals with XF 498 CNS.
Experiment [3] relates to SNB-78 CNS.
Experiment [4] relates to RXF-631 renal.
The subject of experiment [5] is RPMI-8226 leukemia.
Experiment [6] deals with M19-MEL melanoma.
For experiment [7], the system named is M14 melanoma.
Experiment [8] deals with DMS 114 small cell lung.
Experiment [9] concerns LXFL 529 NSCLC.
Experiment [10] concerns UO-31 renal.
The test system of experiment [11] is A498 renal.
Experiment [12] concerns DLD-1 colon.
Experiment [13] concerns HOP-18 NSCLC.
The test system of experiment [14] is KM20L2 colon.
For experiment [15], the system named is SN12K1 renal.
For experiment [16], the system named is MDA-MB-231 breast.

In the case of `CCN(CC)CCCCC1CCN(CC(=O)N2c3ccccc3NC(=O)c3ccccc32)CC1`, the TGI in experiment [1], in experiment [2], in experiment [3], in experiment [4], in [5] and in [6] was > 100 µM each time. In addition, the TGI is 39.7 µM in experiment [7]; > 100 µM in experiment [8]; > 100 µM in experiment [9]; > 100 µM in [10]; > 100 µM in experiment [11]; > 100 µM in experiment [12].
Take `C1=CCN(c2ccccc2)CC1`: the TGI in experiment [13] is > 100 µM; in [1], > 100 µM; in [2], 40.6 µM; in experiment [3], > 100 µM; in experiment [14] it was > 100 µM; in experiment [4] it was > 100 µM. Besides, the TGI in experiment [5] was > 100 µM; in experiment [7] it was 44.8 µM; in [8], > 100 µM; in [9], 43.3 µM; in [10], > 100 µM; in [11], > 100 µM. Also, the TGI in [12] was > 100 µM.
Regarding `Nc1ccc(N=Nc2ccc(/C=C/c3ccc(N=Nc4ccc(N)c5ccc(S(=O)(=O)O)cc45)cc3S(=O)(=O)O)c(S(=O)(=O)O)c2)c2cc(S(=O)(=O)O)ccc12`, the TGI in [13], in [1], in [2], in [3], in [14] and in [5] was > 100 µM throughout. Also, the TGI in experiment [6], in experiment [8], in experiment [15], in experiment [10], in [11] and in experiment [12] was > 100 µM throughout.
Turning to `CC(SC1=CC(=O)c2c(Cl)ccc(O)c2C1=O)C(=O)O` (centres undefined), the TGI in [13] is 75.8 µM; in [1], 35.6 µM; in [2], 34.2 µM; in [3] it was 26.3 µM; in [14], > 100 µM; in experiment [5] it was 76.4 µM. Further, the TGI in experiment [8] is 38.4 µM; in experiment [9], 29.5 µM; in [11] it was > 100 µM; in experiment [12], 34.7 µM.
Consider `CC[C@@]1(O)C(=O)OCc2c1c(Cl)c1n(c2=O)Cc2cc3ccccc3nc2-1`, for which the TGI was > 28.5 µM in [13]; > 100 µM in experiment [16]; 8.12 µM in [1]; 15.8 µM in experiment [2]; 84 µM in [3]; > 100 µM in experiment [14]. Besides, the TGI in experiment [4] is 18.5 µM; in [5] it was > 100 µM; in experiment [6] it was > 30.7 µM; in [7] it was 9.04 µM; in [8] it was 15.9 µM; in [9], > 100 µM. The TGI was 9.22 µM in [10], 8.45 µM in [11] and > 100 µM in [12].
With `C/C(C=O)=C1\C(O)C[C@]1(C)C1CC(C)(C)CC1O` (some centres undefined), the TGI in experiment [1], in [3], in experiment [14], in experiment [5], in experiment [6] and in experiment [7] was > 100 µM each time. For the same compound, the TGI in [8], in experiment [9], in experiment [10], in [11] and in [12] was > 100 µM each time.
Consider `CCc1cc(Cc2cc(CC)c(NC(=O)C3=CC(=O)CC(c4ccc(OC)cc4)O3)c(CC)c2Cl)c(Cl)c(CC)c1NC(=O)C1=CC(=O)CC(c2ccc(OC)cc2)O1` (centres undefined), for which the TGI is 53.5 µM in experiment [13]; 37.6 µM in experiment [1]; 85.1 µM in experiment [3]; 63.4 µM in experiment [14]; > 100 µM in [4]; 46.8 µM in [5]. For the same compound, the TGI in experiment [6] worked out at 40.2 µM; in experiment [7] it was 31.6 µM; in experiment [8] it was 33.5 µM; in experiment [9], 31.9 µM; in [10], 30.8 µM; in experiment [11] it was 39.9 µM. The same compound displayed a TGI in [12] of 34.8 µM.
Regarding `Cc1ccc(S(=O)(=O)N/N=C2\C(=O)C3CC2C(Cl)C3Cl)cc1` (centres undefined), the TGI in experiment [13], in experiment [1], in experiment [14], in [4], in [5] and in experiment [7] was > 100 µM in each case. Besides, the TGI in [8], in experiment [9], in experiment [10], in experiment [11] and in [12] was > 100 µM in each case.
Regarding `COc1ccc2c(c1)c(Cc1c(C)n(C)c3ccc(OC)cc13)c(C)n2C`, the TGI in experiment [13], in experiment [1], in [2], in [3], in experiment [14] and in experiment [5] was > 100 µM each time. Also, the TGI in experiment [6], in [7], in [8], in [9], in experiment [10] and in experiment [11] was > 100 µM in each case. Moreover, in [12], the TGI is > 100 µM.
Regarding `CC(=O)Nc1ccc(-c2nnc(SCC(=O)Nc3ccccc3Cl)o2)cc1`, the TGI in experiment [13], in experiment [1], in experiment [3], in experiment [14], in experiment [6] and in [7] was > 100 µM throughout. In addition, the TGI in experiment [8], in [9], in [10], in [11] and in [12] was > 100 µM throughout.
`O=C(Cc1ccccc1)N/N=C(/CCN1CCCC1)CC(c1ccccc1)c1c(O)c2ccccc2oc1=O` (centres undefined): the TGI in experiment [16], in experiment [5], in experiment [7], in experiment [10] and in [11] was > 100 µM each time.
Consider `CSC1=N/C(=C\c2cccs2)C(=O)N1CN1CCCCC1`, for which the TGI was > 100 µM in experiment [16]; 68.8 µM in experiment [5]; > 100 µM in [7]; > 100 µM in experiment [10]; > 100 µM in experiment [11].
Regarding `CCCCCCN(C(=O)Oc1ccccc1)C(C#N)c1ccccc1` (centres undefined), the TGI in [16], in experiment [5], in experiment [7], in [10] and in experiment [11] was > 100 µM in each case.
With `O=C(/C=C/c1ccc(O)c(O)c1)NC(CO)C(=O)O` (centres undefined), the TGI in experiment [16], in experiment [5], in experiment [7], in experiment [10] and in experiment [11] was > 100 µM in each case.
Take `NN/C(=N\S(=O)(=O)c1cc(Cl)c(Oc2ccc([N+](=O)[O-])cc2Cl)c(Cl)c1)Nc1ccc(Cl)cc1`: the TGI in [16] was 39.9 µM; in experiment [5], > 100 µM; in experiment [7], 31.2 µM; in experiment [10], 32.3 µM; in [11], 64.4 µM.
With `c1ccc(C2=NN(c3ccccc3)C3(S2)SC(c2ccccc2)(c2ccccc2)c2ccccc23)cc1` (centres undefined), the TGI in [1], in experiment [2], in experiment [3], in experiment [14], in [5] and in experiment [6] was > 100 µM each time. For the same compound, the TGI in experiment [7], in experiment [8], in [9], in experiment [10], in [11] and in experiment [12] was > 100 µM in each case.
Regarding `CCOc1ccc(NCC(=O)N2CC(=O)Nc3ccccc32)cc1`, the TGI in experiment [13], in experiment [1], in [2], in experiment [3], in [14] and in experiment [5] was > 100 µM each time. The TGI in experiment [6], in experiment [7], in [9], in experiment [10] and in experiment [12] was > 100 µM throughout.
With `CC1CN=C(NCc2ccccc2)S1` (centres undefined), the TGI in [16], in experiment [5], in experiment [7], in [10] and in experiment [11] was > 100 µM throughout.
Consider `O=c1cc(-c2ccc(O)c(O)c2)oc2cc(OC3OC(CO)C(O)C(O)C3O)cc(O)c12` (centres undefined), for which the TGI in experiment [16], in [5], in experiment [7], in experiment [10] and in [11] was > 100 µM throughout.
Take `CN(C(=O)C1=CCCCCC1)c1ccccc1I`: the TGI in [16], in [5], in experiment [7], in experiment [10] and in [11] was > 100 µM each time.
Take `Cc1ccc2c(c1)C(C1Cc3c(C)cccc3C1=O)OC2=O` (centres undefined): the TGI in experiment [16], in experiment [5], in experiment [7], in experiment [10] and in [11] was > 100 µM throughout.
`COc1ccc(CCN2CCC(C#N)(c3ccc(OC)c(OC)c3)CC2)cc1OC`: the TGI in [13], in experiment [1], in experiment [2], in [14], in [5] and in experiment [6] was > 100 µM in each case. The TGI in experiment [7], in [8], in experiment [9], in [10] and in experiment [12] was > 100 µM in each case.
Take `Cc1nc2ccccc2nc1NS(=O)(=O)c1ccc(N)cc1`: the TGI in experiment [13], in experiment [1], in experiment [2], in experiment [3], in experiment [14] and in [4] was > 100 µM in each case. Further, the TGI in experiment [5], in experiment [6], in experiment [7], in experiment [9], in experiment [10] and in [11] was > 100 µM in each case. Also, the TGI in experiment [12] is > 100 µM.
Turning to `O=C1/C(=C/c2cccc([N+](=O)[O-])c2)COc2ccccc21`, the TGI in experiment [13] was 24.8 µM; in experiment [3], > 100 µM; in experiment [14], > 100 µM; in [4] it was 31.7 µM; in experiment [6], 5.49 µM; in experiment [7], 3.38 µM. In addition, the TGI was 8.14 µM in experiment [8]; 7.79 µM in [9]; 67.8 µM in experiment [10]; > 84.4 µM in [11]; 9.56 µM in experiment [12].
In the case of `Cc1sc2ncnc(NCCc3ccccc3)c2c1C`, the TGI turned out to be 37.9 µM in [16]; 42.8 µM in experiment [5]; 41.3 µM in [7]; 38.8 µM in experiment [10]; 29 µM in experiment [11].
